In US12102685B2, “Immodulator peptides covalently modified with small molecules” (priority 2020, dated 2024):
Marks after values point to notes of the source that are not given here. Blank lines part the entries; values can stand above or below the compound they belong to. Peptide text beside a SMILES is read from it.

What was measured:
[1] = target: T1, AA111-228 DNA-binding domain of RXR-alpha (RXRa-DBD) (Homo sapiens, UniProt P19793); assay: Binding to RXRa-DBD (x3A); conditions: 1 ug/well RXRa-DBD, 800 ng/well SA488-labelled peptide; background subtracted
T1 construct: purchased Abcam, Cambridge, MA
T1 sequence (P19793 111-228): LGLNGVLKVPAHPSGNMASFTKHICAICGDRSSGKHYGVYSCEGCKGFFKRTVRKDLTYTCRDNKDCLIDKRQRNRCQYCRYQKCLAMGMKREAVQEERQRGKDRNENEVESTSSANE
Method: Binding of immodulator peptides to AA111-228 DNA-binding domain of RXR-alpha (RXRa-DBD). 1 ug/well recombinant RXRa-DBD (Abcam, Cambridge, MA) was adsorbed to wells of a 96-well plate for 60 minutes at RT, then blocked with 200 uL 1% BSA in PBS buffer overnight. Plate was washed and 800 ng/well Streptavidin-Alexa 488 conjugate (SA488)-labelled IM peptide was added. The plate was incubated for 60 min at room temperature, washed and counted in a standard fluorometer (excitation/emission 485/525 nm). Background (buffer alone) was subtracted.

[2] = Alexa488-SA-labelled IM1-IM6 binding to metal-charged NTA-coated plate (x2B d); conditions: no peptide background = 1.0
Method: NTA-metal-affinity fluorescence assay was performed using 96-well NTA-metal-coated plates readily available from commercial sources such as Qiagen (Germantown, MD). NTA was charged with ferrous or ferric iron, zinc, copper, calcium, vanadium, ruthenium, cobalt, titanium, manganese or other metals. 400 ng of FITC-labeled immodulator peptide (or biotinylated immodulator peptide complexed to Alexa-488-labeled streptavidin) in PBS buffer was added per plate. After incubation at room temperature for 60 minutes, excess peptide was washed off and peptide was detected by measuring fluorescence (excitation 490 nm, emmission 525 nm) in a fluorometer. • (a) Using FITC-labeled IM3 peptide (1 ug/well) in the fluorescent binding assay: • EDTA-treated control: 2,251±1,186 • Ferrous iron: 170,441±11,264 (p<0.001)* • Copper: 13,644±5566 (p<0.05)* • Calcium: 48,822±11,990 (p<0.01)* • *p values are relative to EDTA-treated control • (b) Competition binding assay to ferrous iron, calcium, copper and zinc-charged NTA-coated plates using FITC-labeled IM3 peptide (0.5 uM) and 8× (4 uM) unlabelled competitor peptides IM3N1, IM3N2 (*all comparisons to PBS control are p<0.01); # fluorescent value of binding to […] was set at 100.
Ferrous iron # (100±2.6*); Control (no metal): 6.4±3.1; Ferric iron: 94.1±6.6*; Calcium: 47.6±3.7*; Vanadium: 53.9±5.5*; Manganese: 54.4±11.2*; Cobalt: 25.4±2.3*; Copper: 58.4±6.4*; Zinc: 71.4±8.3*; Ruthenium: 67.8±8.3*; (d) Alexa488-SA-labelled immodulator peptide IM1, IM2, IM3, IM4, IM5, IM6 (400 ng/well) were bound to NTA-coated plate charged with the indicated metals: # background (no peptide) control set to 1.0;*p<0.05, **p<0.01 vs “no peptide”

[3] = FITC-PI(4,5)P2 binding to plate-bound peptide with calcium (x9A)
Method: (§1) Immodulator peptides IM1, IM3 and IM5 (400 ng/well) in PBS were bound to streptavidin-coated 96-well plates at room temperature for 60 minutes, in the presence or absence of 500 uM calcium chloride. Each well also received 200 ng cold PPI plus 10 ng FITC-labeled PI(4,5)P2 or PI(4)P1. The tables below show the relative fluorescence (with/without calcium background) expressed as a percentage of the highest binder, FITC-PI(4,5)P2+cold PI(3,5)P2, which was 2,496 fluorescence units. Background binding without calcium was, in all cases, 200-300 fluorescence units.

[4] = FITC-PI(4)P1 binding to plate-bound peptide with calcium (x9A)
Method: as §1

[5] = Strength of binding to iron, plate assay (x2E b); conditions: 1 ug/well peptide complexed to Alexa-488-streptavidin; ferric iron
Method: Immodulator peptides were extended C-terminally by three amino acids, to include a valine residue that is highly conserved in the “thyroglobulin type 1 motif”. The reasoning behind this attempt is that a longer conserved sequence might lead to a tighter fold overall, which might in turn result in increased metal-binding avidity. • (b) Strength of binding to iron was evaluated by plate assay.
Experiments were conducted by the procedure described above. Ferric iron-charged NTA-coated 96-well plates were used as described. 1 ug/well immodulator peptide complexed to Alexa-488-labeled streptavidin in PBS buffer was added (60 min at room temperature). The plate was washed and counted in a standard fluorometer (excitation/emission: 485/525 nm). The results (fluorescence) show improved iron-binding by the three peptides extended C-terminally by the AVD, (dA)VD, and FVS tripeptides. **p<0.01 vs IM3 control IM3: 200±29; IM4: 45±37**; IM5: 130±77; IM3AVD: 434±29**; IM3dAVD: 418±28**; IM3FVS: 371±33** • (c) Competition assay. The same procedure was used as the preceding experiment, except that 375 ng/well labeled IM3 peptide was used, plus 10× of the indicated unlabeled peptide. ‘No competing peptide’ control value was set to 100. *p<0.05 vs “no peptide” control Competing Peptide/Fluorescence • None: 100±38; IM4: 125±26; IM3: 63±27*; IM5: 40±14*; IM3AVD: 10±28* • (d) Competition assay. The same procedure was used as the preceding experiment, except that labeled IM3AVD peptide was used. **p<0.01 vs “no competing peptide” control • None: 100±9; IM4: 144±44; IM3: 35±16**; IM5: 30±19**; IM3AVD: 9±19** • (e) The same procedure was used as the preceding experiment, except that each peptide was labeled with Alexa-488-labeled streptavidin in PBS buffer and used separately. Binding to IM3 was set to =100. *p<0.05, **p<0.01 vs IM3 control. (Labeled Peptide/Fluorescence) IM1: 1.8±0.4**; IM2: 3.0±1.8**; IM3: 100.0±16.8; IM4: 7.2±1.7*; IM5: 86.7±6.4; IM6: 85.9±14.9; IM3AVD:137.7±11.8*; IM3dAVD:147.4±22.9*; IM3FVS: 101.5±10.5.

fluorescence [1]: 2±38 | fluorescence ([2]; Calcium): 1.7 ± 0.2* | fluorescence ([2]; Copper): 3.6 ± 0.1** | fluorescence ([2]; Ferrous iron, 400 ng/well): 1.4 ± 0.3 | fluorescence ([2]; Zinc): 1.1 ± 0.1
Compound: CSCC[C@H](NC(=O)[C@H](CCCCN)NC(=O)[C@H](CS)NC(=O)[C@H](CCC(N)=O)NC(=O)[C@H](CCCCN)NC(=O)[C@H](CC(C)C)NC(=O)[C@H](CC(N)=O)NC(=O)[C@H](Cc1ccc(O)cc1)NC(=O)[C@H](CC(C)C)NC(=O)CNC(=O)[C@H](Cc1c[nH]cn1)NC(=O)[C@@H](N)CCCCN)C(=O)N[C@@H](CO)C(=O)N[C@@H](CC(C)C)C(=O)N[C@@H](CC(N)=O)C(=O)NCC(=O)N[C@@H](CCC(N)=O)C(=O)N[C@@H](CCCNC(=N)N)C(=O)NCC(=O)N[C@@H](CCC(=O)O)C(=O)N[C@@H](CS)C(=O)N[C@@H](Cc1c[nH]c2ccccc12)C(=O)O [IM2]

fluorescence [1]: 670±85 | fluorescence ([2]; Calcium): 1.1 ± 0.1 | fluorescence ([2]; Copper): 3.0 ± 0.1** | fluorescence ([2]; Ferrous iron, 400 ng/well): 1.2 ± 0.3 | fluorescence ([2]; Zinc): 1.1 ± 0.2 | relative fluorescence, FITC-PI(4,5)P2 bound ([3]; cold PPI: 3,4,5-P3, calcium): 0.1 percentage of the highest binder | relative fluorescence, FITC-PI(4,5)P2 bound ([3]; cold PPI: 3,4-P2, calcium): 1.1 percentage of the highest binder | relative fluorescence, FITC-PI(4,5)P2 bound ([3]; cold PPI: 3,5-P2, calcium): 4.3 percentage of the highest binder | relative fluorescence, FITC-PI(4,5)P2 bound ([3]; cold PPI: 3-P1, calcium): 3.1 percentage of the highest binder | relative fluorescence, FITC-PI(4,5)P2 bound ([3]; cold PPI: 4,5-P2, calcium): 0.8 percentage of the highest binder | relative fluorescence, FITC-PI(4,5)P2 bound ([3]; cold PPI: 4-P1, calcium): 1.3 percentage of the highest binder | relative fluorescence, FITC-PI(4,5)P2 bound ([3]; cold PPI: 5-P1, calcium): 0.5 percentage of the highest binder | relative fluorescence, FITC-PI(4,5)P2 bound ([3]; cold PPI: None, 500 uM calcium chloride): 1.6 percentage of the highest binder | relative fluorescence, FITC-PI(4)P1 bound ([4]; cold PPI: 3,4,5-P3): 0.1 percentage of the highest binder | relative fluorescence, FITC-PI(4)P1 bound ([4]; cold PPI: 3,4-P2): 2.6 percentage of the highest binder | relative fluorescence, FITC-PI(4)P1 bound ([4]; cold PPI: 3,5-P2): 4.3 percentage of the highest binder | relative fluorescence, FITC-PI(4)P1 bound ([4]; cold PPI: 3-P1): 3.1 percentage of the highest binder | relative fluorescence, FITC-PI(4)P1 bound ([4]; cold PPI: 4,5-P2): 0.8 percentage of the highest binder | relative fluorescence, FITC-PI(4)P1 bound ([4]; cold PPI: 4-P1): 2.7 percentage of the highest binder | relative fluorescence, FITC-PI(4)P1 bound ([4]; cold PPI: 5-P1): 0.5 percentage of the highest binder | relative fluorescence, FITC-PI(4)P1 bound ([4]; cold PPI: None): 1.6 percentage of the highest binder
Compound: CSCC[C@H](NC(=O)[C@H](CO)NC(=O)[C@@H](NC(=O)[C@H](CCC(=O)O)NC(=O)[C@H](CS)NC(=O)[C@H](CCC(N)=O)NC(=O)[C@H](CCCNC(=N)N)NC(=O)[C@H](CO)NC(=O)[C@H](Cc1c[nH]cn1)NC(=O)[C@H](Cc1ccc(O)cc1)NC(=O)[C@H](Cc1ccccc1)NC(=O)CNC(=O)[C@H](CC(N)=O)NC(=O)[C@@H](N)CCCCN)[C@@H](C)O)C(=O)N[C@@H](CC(=O)O)C(=O)NCC(=O)N[C@@H](CCC(=O)O)C(=O)N[C@@H](C)C(=O)NCC(=O)N[C@@H](CC(C)C)C(=O)N[C@@H](CS)C(=O)N[C@@H](Cc1c[nH]c2ccccc12)C(=O)O [IM1] (H-KNGFYHSRQCETSMDGEAGLCW-OH; N-terminus and C-terminus assumed)

fluorescence [1]: 27±31 | fluorescence ([2]; Calcium): 1.0 ± 0.1 | fluorescence ([2]; Copper): 5.7 ± 0.1** | fluorescence ([2]; Ferrous iron, 400 ng/well): 2.8 ± 1.4 | fluorescence ([2]; Zinc): 1.2 ± 0.2 | fluorescence (iron binding) [5]: 45±37
Compound: CC(C)C[C@H](NC(=O)[C@H](C)NC(=O)[C@@H]1CCCN1C(=O)[C@H](Cc1c[nH]cn1)NC(=O)[C@H](CS)NC(=O)[C@H](CCC(N)=O)NC(=O)[C@H](CCCCN)NC(=O)[C@@H]1CCCN1C(=O)[C@H](Cc1c[nH]cn1)NC(=O)[C@H](Cc1ccccc1)NC(=O)[C@H](CC(N)=O)NC(=O)CNC(=O)[C@H](CC(N)=O)NC(=O)[C@@H](N)CCCNC(=N)N)C(=O)N[C@@H](CC(=O)O)C(=O)NCC(=O)N[C@@H](CCC(N)=O)C(=O)N[C@@H](CCCNC(=N)N)C(=O)NCC(=O)N[C@@H](CCCCN)C(=O)N[C@@H](CS)C(=O)N[C@@H](Cc1c[nH]c2ccccc12)C(=O)O [IM4] (H-RNGNFHPKQCHPALDGQRGKCW-OH; N-terminus and C-terminus assumed)
